Paper PMC6273488, “Synthesis and Biological Evaluation of Benzochromenopyrimidinones as Cholinesterase Inhibitors and Potent Antioxidant, Non-Hepatotoxic Agents for Alzheimer’s Disease” (Molecules, 2016)
Where two headings read alike, the source gives them in different places.

Columns and labels:
[1] = target: T1, Electrophorus electricus AChE (EeAChE) (Electrophorus electricus, UniProt O42275); experiment: Inhibition of EeAChE (Ellman's assay); type: biochemical; conditions: mean ± SEM, at least three independent experiments
T1 construct: purified AChE from Electrophorus electricus (Type V-S, Sigma-Aldrich); purchased Sigma-Aldrich Type V-S
Method: (§1) For the preliminary screening of the inhibitory potencies, Electrophorus electricus AChE (EeAChE) and horse serum BuChE (eqBuChE) were used following the Ellman’s assay.
(§2) Assessment of the inhibitory power of BCPOs was performed following the spectrophotometric method of Ellman using purified AChE from Electrophorus electricus (Type V-S, Sigma-Aldrich) or BuChE from horse serum (lyophilized powder, Sigma-Aldrich). Enzymes were first dissolved in 0.1 M phosphate buffer (pH 8.0) and then aliquoted in small vials for easy handling. Compounds stock solutions in DMSO (10 mM) were diluted when necessary with DMSO to prepare appropriate dilutions of each compound. The assay was performed in a final volume of 3 mL of a 0.1 M phosphate-buffered solution at pH 8.0, containing 5,5′-dithiobis-2-nitrobenzoic acid (DTNB, 2625 µL, 0.35 mM, final concentration), EeAChE (29 µL, 0.035 U/mL final concentration) or eqBuChE (60 µL, 0.05 U/mL final concentration) tested compound (3 µL, different concentrations) and 1% (w/v) Bovine Albumin Serum phosphate-buffered (pH 8.0) solution (BSA, 40 µL). The inhibition in comparison to control without compound was determined by pre-incubating this blend at room temperature with each compound at nine different concentrations for 10 min. Then, acetylthiocholine iodide (105 µL, 0.35 mM, final concentration) or butyrylthiocholine iodide (150 µL, 0.5 mM final concentration) was added and incubated for another 15 min at rt. […] Calculation of IC50 values was performed with GraphPad Prism 5. Each concentration was measured in triplicate. Data are expressed as mean ± SEM.

[2] = target: T2, horse serum BuChE (eqBuChE) (Equus caballus, UniProt P81908); experiment: Inhibition of eqBuChE (Ellman's assay); type: biochemical; conditions: 10 µM compound
T2 construct: BuChE from horse serum (lyophilized powder, Sigma-Aldrich); purchased Sigma-Aldrich; host or cells: horse serum
Method: as §1, §2

[3] = Oxygen radical absorbance capacity by fluorescence (ORAC-FL); conditions: mean ± SD
Method: Trolox was used as standard, fluorescein as fluorescent probe and 2,2′-azobis(2-amidinopropane) dihydrochloride (AAPH) as the peroxyl radical source. Ferulic acid was used as a positive control.
The antioxidant power of BCPOs was determined following the ORAC-FL method using fluorescein as the fluorescent probe. (±)-6-Hydroxy-2,5,7,8-tetramethylchromane-2-carboxylic acid (Trolox), fluorescein (FL) and AAPH were bought from Sigma-Aldrich (Saint Louis, MO, USA). A Varioskan Flash plate reader with built-in injectors (Thermo Scientific, Waltham, MA, USA) was used. The final volume reaction mixture was 200 µL and the reaction was carried out at 37 °C in 75 mM phosphate buffer (pH 7.4). The tested compounds and Trolox standard were dissolved in DMSO to 10 mM and further diluted in phosphate buffer. The final concentrations were 0.1–1 µM for the tested compounds and 1–8 µM for Trolox standard. The blank was composed of 120 µL of FL, 60 µL of AAPH and 20 µL of phosphate buffer (pH = 7.4) and was added in each assay. The antioxidant (20 µL) and fluorescein (FL, 120 µL, final concentration of 70 nM) were incubated in a black 96-well microplate Nunc, purchazed from Thermo Fisher Scientific, Ecublens, Switzerland) for 15 min at 37 °C. Then, AAPH, 60 µL, final concentration of 12 mM) solution was added quickly using the built-in injector. […] The microplate was automatically shaken prior to each reading. All the experiments were made in triplicate and at least three different assays were performed for each sample.
Using MS Excel software, regression equations were extrapolated by plotting the net AUC against the antioxidant concentration. The ORAC values were then obtained by dividing the slope of the latter curve between the slope of the Trolox curve obtained in the same assay. Final ORAC values were expressed as Trolox equivalents. Data are expressed as mean ± SD.

[4] = ORAC-FL, cited from earlier work
in vitro = conditions: for Papp: PAMPA, pH 7.4
Method: Penetration across the BBB is an essential property for compounds targeting the CNS. […] The filter membrane of the donor plate was coated with PBL (Polar Brain Lipid, Avanti, AL, USA) in dodecane (4 µL of 20 mg/mL PBL in dodecane) and the acceptor well was filled with 300 µL of PBS pH 7.4 buffer ([…]). Tested compounds were dissolved first in DMSO and that diluted with PBS pH 7.4 to reach the final concentration 100 µM in the donor well. […] 300 µL of the donor solution was added to the donor wells ([…]) and the donor filter plate was carefully put on the acceptor plate so that coated membrane was “in touch” with both donor solution and acceptor buffer. Test compound diffused from the donor well through the lipid membrane (Area = 0.28 cm^2) to the acceptor well. The concentration of the drug in both donor and the acceptor wells was assessed after 3, 4, 5 and 6 h of incubation in quadruplicate using the UV plate reader Synergy HT (Biotek, Winooski, VT, USA) at the maximum absorption wavelength of each compound.

T1 sequence (O42275 24-633): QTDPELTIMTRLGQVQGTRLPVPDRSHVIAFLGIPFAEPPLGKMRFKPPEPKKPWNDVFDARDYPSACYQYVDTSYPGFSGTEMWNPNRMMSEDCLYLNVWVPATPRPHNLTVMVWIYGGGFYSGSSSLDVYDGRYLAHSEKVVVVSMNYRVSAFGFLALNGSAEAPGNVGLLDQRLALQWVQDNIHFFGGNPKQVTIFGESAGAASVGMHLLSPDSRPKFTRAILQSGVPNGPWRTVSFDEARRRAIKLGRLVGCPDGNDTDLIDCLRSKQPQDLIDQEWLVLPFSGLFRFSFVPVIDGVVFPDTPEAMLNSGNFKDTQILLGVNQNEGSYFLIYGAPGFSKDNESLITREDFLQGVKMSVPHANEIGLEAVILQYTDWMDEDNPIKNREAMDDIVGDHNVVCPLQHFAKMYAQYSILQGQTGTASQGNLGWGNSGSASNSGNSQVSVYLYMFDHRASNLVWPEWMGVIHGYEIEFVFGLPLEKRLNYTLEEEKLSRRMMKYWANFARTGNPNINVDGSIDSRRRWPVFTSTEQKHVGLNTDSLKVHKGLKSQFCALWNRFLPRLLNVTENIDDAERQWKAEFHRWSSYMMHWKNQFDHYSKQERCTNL
T2 sequence (P81908 whole entry): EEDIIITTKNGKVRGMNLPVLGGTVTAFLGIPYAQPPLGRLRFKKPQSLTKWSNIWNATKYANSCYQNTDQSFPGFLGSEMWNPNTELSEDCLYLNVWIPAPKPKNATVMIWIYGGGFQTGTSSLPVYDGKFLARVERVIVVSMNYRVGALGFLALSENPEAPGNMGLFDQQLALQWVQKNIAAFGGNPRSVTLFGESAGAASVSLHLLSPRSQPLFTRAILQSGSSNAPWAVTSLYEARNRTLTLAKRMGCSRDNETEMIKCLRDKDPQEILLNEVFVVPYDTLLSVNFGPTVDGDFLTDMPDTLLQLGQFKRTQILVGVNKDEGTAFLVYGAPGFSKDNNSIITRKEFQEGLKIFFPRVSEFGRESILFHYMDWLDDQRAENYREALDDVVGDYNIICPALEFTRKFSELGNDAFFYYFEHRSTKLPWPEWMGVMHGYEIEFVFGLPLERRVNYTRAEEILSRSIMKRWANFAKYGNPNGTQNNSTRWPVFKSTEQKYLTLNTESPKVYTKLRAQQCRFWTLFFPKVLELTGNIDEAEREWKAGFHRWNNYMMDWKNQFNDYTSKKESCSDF

| Structure (SMILES) | IC50 [1] [nM] | inhibition at 10 µM [2] [%] | ORAC [3] [Trolox equivalents] | ORAC [4] | ORAC ([4]; listed as ferulic acid) [Trolox equivalents] | Papp (in vitro) [×10⁻⁶ cm/s] | BBB Penetration Estimation CNS (+/−) (in vitro; PAMPA-BBB class) |
| --- | --- | --- | --- | --- | --- | --- | --- |
| O=c1c2c(nc3n1CCC3)Oc1ccc3ccccc3c1C2c1ccccc1 (centres unmarked) [3Aa, 14-Phenyl-10,11-dihydro-14H-benzo[5,6]chromeno[2,3-d]pyrrolo[1,2-a]pyrimidin-13(9H)-one] | 518 ± 87.9 | 12.1 ± 1.4 | 2.6 ± 0.1 |  |  |  |  |
| O=c1c2c(nc3n1CCCCC3)Oc1ccc3ccccc3c1C2c1ccccc1 (centres unmarked) [3Ac, 16-Phenyl-10,11,12,13,-tetrahydro-16H-benzo[5,6]chromeno[2′,3′,4,5]pyrimido[1,2-a]azepin-15(9H)-one] | 301 ± 6.5 | 28.4 ± 7.3 | 2.5 ± 0.2 |  |  |  |  |
| COc1cccc(C2c3c(nc4n(c3=O)CCCCC4)Oc3ccc4ccccc4c32)c1 (centres unmarked) [3Bc, 16-(3′-Methoxyphenyl)-10,11,12,13-tetrahydro-16H-benzo[5,6]chromeno[2′,3′,4,5]pyrimido[1,2-a]azepin-15(9H)-one] | 108 ± 7.2 | < 10 | 3.5 ± 0.3 |  |  |  |  |
| Cc1ccc(C2c3c(nc4n(c3=O)CCC4)Oc3ccc4ccccc4c32)cc1 (centres unmarked) [3Ca, 14-(4′-Methylphenyl)-10,11-dihydro-14H-benzo[5,6]chromeno[2,3-d]pyrrolo[1,2-a]pyrimidin-13(9H)-one] | 112 ± 21.7 | 17.4 ± 1.8 | 2.7 ± 0.3 |  |  |  |  |
| Cc1ccc(C2c3c(nc4n(c3=O)CCCCC4)Oc3ccc4ccccc4c32)cc1 (centres unmarked) [3Cc, 16-(4’-Methylphenyl)-10,11,12,13-tetrahydro-16H-benzo[5,6]chromeno[2′,3′,4,5]pyrimido[1,2-a]azepin-15(9H)-one] | 167 ± 7.8 | < 10 | 3.1 ± 0.2 |  |  |  |  |
| O=c1c2c(nc3n1CCC3)Oc1c(ccc3ccccc13)C2c1ccccc1 (centres unmarked) [4Aa, 7-Phenyl-11,12-dihydro-7H-benzo[7,8]chromeno[2,3-d]pyrrolo[1,2-a]pyrimidin-8(10H)-one] | 318 ± 26 | 23.1 ± 3.1 | 2.1 ± 0.1 |  |  |  |  |
| O=c1c2c(nc3n1CCCC3)Oc1c(ccc3ccccc13)C2c1ccccc1 (centres unmarked) [4Ab, 7-Phenyl-10,11,12,13-tetrahydro-7H-benzo[7,8]chromeno[2,3-d]pyrido[1,2-a]pyrimidin-8-one] | 384 ± 19.4 | 54.6 ± 1.8 | 2.3 ± 0.2 |  |  |  |  |
| O=c1c2c(nc3n1CCCCC3)Oc1c(ccc3ccccc13)C2c1ccccc1 (centres unmarked) [4Ac, 7-Phenyl-11,12,13,14-tetrahydro-7H-benzo[7,8]chromeno[2′,3′,4,5]pyrimido[1,2-a]azepin-8(10H)-one] | 290 ± 8.3 | 24.2 ± 3.1 | 2.5 ± 0.1 |  |  |  |  |
| COc1cccc(C2c3ccc4ccccc4c3Oc3nc4n(c(=O)c32)CCC4)c1 (centres unmarked) [4Ba, 7-(3′-Methoxyphenyl)-11,12-dihydro-7H-benzo[7,8]chromeno[2,3-d]pyrrolo[1,2-a]pyrimidin-8(10H)-one] | 327 ± 38.9 | 38 ± 1.6 | 3.8 ± 0.1 |  |  |  |  |
| COc1cccc(C2c3ccc4ccccc4c3Oc3nc4n(c(=O)c32)CCCC4)c1 (centres unmarked) [4Bb, 7-(3′-Methoxyphenyl)-10,11,12,13-tetrahydro-7H-benzo[7,8]chromeno[2,3-d]pyrido[1,2-a]pyrimidin-8-one] | 153 ± 3.1 | < 10 | 3.7 ± 0.2 |  |  |  |  |
| COc1cccc(C2c3ccc4ccccc4c3Oc3nc4n(c(=O)c32)CCCCC4)c1 (centres unmarked) [4Bc, 7-(3′-Methoxyphenyl)-11,12,13,14-tetrahydro-7H-benzo[7,8]chromeno[2′,3′,4,5]pyrimido[1,2-a]azepin-8(10H)-one] | 195 ± 6.2 | 31.1 ± 2.1 | 3.4 ± 0.2 |  |  |  |  |
| Cc1ccc(C2c3ccc4ccccc4c3Oc3nc4n(c(=O)c32)CCC4)cc1 (centres unmarked) [4Ca, 7-(4′-Methylphenyl)-11,12-dihydro-7H-benzo[7,8]chromeno[2,3-d]pyrrolo[1,2-a]pyrimidin-8(10H)-one] | 116 ± 6.2 | 26.8 ± 2.9 | 3.2 ± 0.1 |  |  |  |  |
| Cc1ccc(C2c3ccc4ccccc4c3Oc3nc4n(c(=O)c32)CCCC4)cc1 (centres unmarked) [4Cb, 7-(4′-Methylphenyl)-10,11,12,13-tetrahydro-7H-benzo[7,8]chromeno[2,3-d]pyrido[1,2-a]pyrimidin-8-one] | 193 ± 18.7 | 24.4 ± 1.2 | 2.9 ± 0.1 |  |  |  |  |
| Cc1ccc(C2c3ccc4ccccc4c3Oc3nc4n(c(=O)c32)CCCCC4)cc1 (centres unmarked) [4Cc, 17-(4′-Methylphenyl)-11,12,13,14-tetrahydro-7H-benzo[7,8]chromeno[2′,3′,4,5]pyrimido[1,2-a]azepin-8(10H)-one] | 174 ± 5.9 | < 10 | 3.6 ± 0.2 |  |  |  |  |
| COc1cc(/C=C/C(=O)O)ccc1O [Ferulic acid] |  |  |  | 3.7 ± 0.1 [22] Trolox equivalents | 3.7 |  |  |
| CN1C(C(=O)Nc2ccccn2)=C(O)c2ccccc2S1(=O)=O [Piroxicam, reference compound] |  |  |  |  |  | 2.2 ± 0.15 | CNS (+/−) (‘CNS (+/−) (BBB permeability uncertain); Pe (10^−6 cm·s^−1) from 4.0 to 2.0) |
| CCN(C)C(=O)Oc1cccc([C@H](C)N(C)C)c1 [Rivastigmine, reference compound] |  |  |  |  |  | 6.6 ± 0.5 |  |
